Measured values published in ChEMBL document CHEMBL2203277, “Synthesis and antibacterial activity of novel modified 5-O-desosamine ketolides” (2012).
≈ marks a conversion by molar mass, not a printed value.

Assays:
Type in all cases: functional
[1] = test system: Staphylococcus epidermidis; test: Antibacterial activity against methicillin-resistant Staphylococcus epidermidis 09R476 by broth microdilution method
Streptococcus pneumoniae [2] = test: Antibacterial activity against erythromycin-sensitive Streptococcus pneumoniae 09H065 by broth microdilution method
Streptococcus pneumoniae [3] = test: Antibacterial activity against erythromycin-resistant Streptococcus pneumoniae 09E427 by broth microdilution method
Streptococcus pneumoniae [4] = test: Antibacterial activity against erythromycin-sensitive Streptococcus pneumoniae 09H071 by broth microdilution method
Staphylococcus aureus [5] = test: Antibacterial activity against methicillin-resistant Staphylococcus aureus 09N120 by broth microdilution method
Staphylococcus aureus [6] = test: Antibacterial activity against methicillin-resistant Staphylococcus aureus 09L075 by broth microdilution method
Streptococcus pneumoniae [7] = test: Antibacterial activity against erythromycin-resistant Streptococcus pneumoniae 09D016 by broth microdilution method
[8] = test system: Staphylococcus epidermidis; test: Antibacterial activity against methicillin-sensitive Staphylococcus epidermidis 09G291 by broth microdilution method
Streptococcus pneumoniae [9] = test: Antibacterial activity against erythromycin-sensitive Streptococcus pneumoniae ATCC 49619 by broth microdilution method
Staphylococcus aureus [10] = test: Antibacterial activity against methicillin-sensitive Staphylococcus aureus ATCC 29213 by broth microdilution method
Streptococcus pyogenes [11] = test: Antibacterial activity against erythromycin-sensitive Streptococcus pyogenes 09U070 by broth microdilution method
Staphylococcus aureus [12] = test: Antibacterial activity against methicillin-sensitive Staphylococcus aureus 09U035 by broth microdilution method
Staphylococcus aureus [13] = test: Antibacterial activity against methicillin-sensitive Staphylococcus aureus 09O077 by broth microdilution method
[14] = test system: Staphylococcus epidermidis; test: Antibacterial activity against methicillin-sensitive Staphylococcus epidermidis 09A011 by broth microdilution method
[15] = test system: Staphylococcus epidermidis; test: Antibacterial activity against methicillin-resistant Staphylococcus epidermidis 09M124 by broth microdilution method
Streptococcus pyogenes [16] = test: Antibacterial activity against erythromycin-resistant Streptococcus pyogenes 09Q149 by broth microdilution method

`CC[C@H]1OC(=O)[C@H](C)C(=O)[C@H](C)[C@@H](O[C@@H]2O[C@H](C)[C@@H](OCc3ccccc3)[C@H](N(C)C)[C@H]2O)[C@](C)(OC)C[C@@H](C)C(=O)[C@H](C)[C@@H]2OC(=O)O[C@]12C` gave an MIC [1] of 32 µg/mL (≈ 44.5 µM), an MIC (Streptococcus pneumoniae [2]) of 4 µg/mL (≈ 5.56 µM) and an MIC (Streptococcus pneumoniae [3]) of over 32 µg/mL. It also gave an MIC (Streptococcus pneumoniae [4]) of 4 µg/mL (≈ 5.56 µM), an MIC (Staphylococcus aureus [5]) of over 32 µg/mL and an MIC (Staphylococcus aureus [6]) of over 32 µg/mL. The MIC (Streptococcus pneumoniae [7]) was over 32 µg/mL, the MIC [8] was over 32 µg/mL and the MIC (Streptococcus pneumoniae [9]) was 4 µg/mL (≈ 5.56 µM). The MIC (Staphylococcus aureus [10]) was 32 µg/mL (≈ 44.5 µM), the MIC (Streptococcus pyogenes [11]) was over 32 µg/mL and the MIC (Staphylococcus aureus [12]) was over 32 µg/mL. It also gave an MIC (Staphylococcus aureus [13]) of over 32 µg/mL, an MIC [14] of 16 µg/mL (≈ 22.2 µM) and an MIC [15] of 32 µg/mL (≈ 44.5 µM). The MIC (Streptococcus pyogenes [16]) was over 32 µg/mL.
With `CC[C@H]1OC(=O)[C@H](C)C(=O)[C@H](C)[C@@H](O[C@@H]2O[C@H](C)[C@@H](O)[C@H](N(C)C)[C@H]2O)[C@](C)(OC)C[C@@H](C)C(=O)[C@H](C)[C@@H]2OC(=O)O[C@]12C` the MIC [1] was 0.25 µg/mL (≈ 0.397 µM), the MIC (Streptococcus pneumoniae [2]) was 0.062 µg/mL (≈ 0.0985 µM) and the MIC (Streptococcus pneumoniae [3]) was over 32 µg/mL. For the same compound, the MIC (Streptococcus pneumoniae [4]) was at most 0.031 µg/mL, the MIC (Staphylococcus aureus [5]) was over 32 µg/mL and the MIC (Staphylococcus aureus [6]) was 0.125 µg/mL (≈ 0.198 µM). The MIC (Streptococcus pneumoniae [7]) was over 32 µg/mL, the MIC [8] was over 32 µg/mL and the MIC (Streptococcus pneumoniae [9]) was 0.062 µg/mL (≈ 0.0985 µM). It also gave an MIC (Staphylococcus aureus [10]) of 0.125 µg/mL (≈ 0.198 µM), an MIC (Streptococcus pyogenes [11]) of at most 0.031 µg/mL and an MIC (Staphylococcus aureus [12]) of over 32 µg/mL. For the same compound, the MIC (Staphylococcus aureus [13]) was over 32 µg/mL, the MIC [14] was 0.125 µg/mL (≈ 0.198 µM) and the MIC [15] was 0.25 µg/mL (≈ 0.397 µM). It also gave an MIC (Streptococcus pyogenes [16]) of over 32 µg/mL.
`C=CCO[C@H]1[C@H](N(C)C)[C@@H](O)[C@H](O[C@@H]2[C@@H](C)C(=O)[C@@H](C)C(=O)O[C@H](CC)[C@@]3(C)OC(=O)O[C@H]3[C@@H](C)C(=O)[C@H](C)C[C@@]2(C)OC)O[C@@H]1C` gave an MIC [1] of 4 µg/mL (≈ 5.97 µM), an MIC (Streptococcus pneumoniae [2]) of 0.5 µg/mL (≈ 0.746 µM) and an MIC (Streptococcus pneumoniae [3]) of over 8 µg/mL. The MIC (Streptococcus pneumoniae [4]) was 1 µg/mL (≈ 1.49 µM), the MIC (Staphylococcus aureus [5]) was over 8 µg/mL and the MIC (Staphylococcus aureus [6]) was 8 µg/mL (≈ 11.9 µM). The MIC (Streptococcus pneumoniae [7]) was over 8 µg/mL, the MIC [8] was over 8 µg/mL and the MIC (Streptococcus pneumoniae [9]) was 0.5 µg/mL (≈ 0.746 µM). The MIC (Staphylococcus aureus [10]) was 4 µg/mL (≈ 5.97 µM), the MIC (Streptococcus pyogenes [11]) was over 8 µg/mL and the MIC (Staphylococcus aureus [12]) was over 8 µg/mL. The MIC (Staphylococcus aureus [13]) was over 8 µg/mL, the MIC [14] was 2 µg/mL (≈ 2.99 µM) and the MIC [15] was 4 µg/mL (≈ 5.97 µM). For the same compound, the MIC (Streptococcus pyogenes [16]) was over 8 µg/mL.
`CC[C@H]1OC(=O)[C@H](C)[C@@H](O[C@H]2C[C@@](C)(OC)[C@@H](O)[C@H](C)O2)[C@H](C)[C@@H](O[C@@H]2O[C@H](C)C[C@H](N(C)C)[C@H]2O)[C@](C)(OC)C[C@@H](C)C(=O)[C@H](C)[C@@H](O)[C@]1(C)O` [CLARITHROMYCIN] showed an MIC [1] of 0.25 µg/mL (≈ 0.334 µM), an MIC (Streptococcus pneumoniae [2]) of 0.062 µg/mL (≈ 0.0829 µM) and an MIC (Streptococcus pneumoniae [3]) of over 32 µg/mL. The MIC (Streptococcus pneumoniae [4]) was 0.062 µg/mL (≈ 0.0829 µM), the MIC (Staphylococcus aureus [5]) was over 32 µg/mL and the MIC (Staphylococcus aureus [6]) was 2 µg/mL (≈ 2.67 µM). For the same compound, the MIC (Streptococcus pneumoniae [7]) was over 32 µg/mL, the MIC [8] was over 32 µg/mL and the MIC (Streptococcus pneumoniae [9]) was 0.125 µg/mL (≈ 0.167 µM). The MIC (Staphylococcus aureus [10]) was 0.25 µg/mL (≈ 0.334 µM), the MIC (Streptococcus pyogenes [11]) was 0.031 µg/mL (≈ 0.0414 µM) and the MIC (Staphylococcus aureus [12]) was over 32 µg/mL. It also gave an MIC (Staphylococcus aureus [13]) of over 32 µg/mL, an MIC [14] of 0.125 µg/mL (≈ 0.167 µM) and an MIC [15] of 32 µg/mL (≈ 42.8 µM). For the same compound, the MIC (Streptococcus pyogenes [16]) was over 32 µg/mL.
With `CC[C@H]1OC(=O)[C@H](C)[C@@H](O[C@H]2C[C@@](C)(OC)[C@@H](O)[C@H](C)O2)[C@H](C)[C@@H](O[C@@H]2O[C@H](C)C[C@H](N(C)C)[C@H]2O)[C@](C)(O)C[C@@H](C)C(=O)[C@H](C)[C@@H](O)[C@]1(C)O` [ERYTHROMYCIN] the MIC [1] was 0.125 µg/mL (≈ 0.17 µM), the MIC (Streptococcus pneumoniae [2]) was 0.062 µg/mL (≈ 0.0845 µM) and the MIC (Streptococcus pneumoniae [3]) was over 256 µg/mL. For the same compound, the MIC (Streptococcus pneumoniae [4]) was 0.062 µg/mL (≈ 0.0845 µM), the MIC (Staphylococcus aureus [5]) was over 256 µg/mL and the MIC (Staphylococcus aureus [6]) was 0.5 µg/mL (≈ 0.681 µM). The MIC (Streptococcus pneumoniae [7]) was over 256 µg/mL, the MIC [8] was over 256 µg/mL and the MIC (Streptococcus pneumoniae [9]) was 0.062 µg/mL (≈ 0.0845 µM). It also gave an MIC (Staphylococcus aureus [10]) of 0.25 µg/mL (≈ 0.341 µM), an MIC (Streptococcus pyogenes [11]) of 0.031 µg/mL (≈ 0.0422 µM) and an MIC (Staphylococcus aureus [12]) of over 256 µg/mL. For the same compound, the MIC (Staphylococcus aureus [13]) was over 256 µg/mL, the MIC [14] was 0.062 µg/mL (≈ 0.0845 µM) and the MIC [15] was 128 µg/mL (≈ 174 µM). The MIC (Streptococcus pyogenes [16]) was over 256 µg/mL.
`CC[C@H]1OC(=O)[C@H](C)C(=O)[C@H](C)[C@@H](O[C@@H]2O[C@H](C)C[C@H](N(C)C)[C@H]2O)[C@](C)(OC)C[C@@H](C)C(=O)[C@H](C)[C@H]2N(CCCCn3cnc(-c4cccnc4)c3)C(=O)O[C@]12C` [TELITHROMYCIN] showed an MIC [1] of 0.125 µg/mL (≈ 0.154 µM), an MIC (Streptococcus pneumoniae [2]) of 0.031 µg/mL (≈ 0.0382 µM) and an MIC (Streptococcus pneumoniae [3]) of 0.25 µg/mL (≈ 0.308 µM). For the same compound, the MIC (Streptococcus pneumoniae [4]) was 0.031 µg/mL (≈ 0.0382 µM), the MIC (Staphylococcus aureus [5]) was over 64 µg/mL and the MIC (Staphylococcus aureus [6]) was 0.125 µg/mL (≈ 0.154 µM). The MIC (Streptococcus pneumoniae [7]) was 0.125 µg/mL (≈ 0.154 µM), the MIC [8] was over 64 µg/mL and the MIC (Streptococcus pneumoniae [9]) was 0.031 µg/mL (≈ 0.0382 µM). It also gave an MIC (Staphylococcus aureus [10]) of 0.125 µg/mL (≈ 0.154 µM), an MIC (Streptococcus pyogenes [11]) of 0.016 µg/mL (≈ 0.0197 µM) and an MIC (Staphylococcus aureus [12]) of over 64 µg/mL. The MIC (Staphylococcus aureus [13]) was over 64 µg/mL, the MIC [14] was 0.125 µg/mL (≈ 0.154 µM) and the MIC [15] was 0.25 µg/mL (≈ 0.308 µM). It also gave an MIC (Streptococcus pyogenes [16]) of 2 µg/mL (≈ 2.46 µM).
